Assay type in all cases: biochemical
In assay [1] the target is T1, HIV-1 reverse transcriptase (Human immunodeficiency virus type 1 group M subtype B, UniProt P04585). Description: Analysis of mismatches: restriction test and sequencing of mutated plasmids from the minus A reaction. To be noted: for fidelity of the HIV-1 reverse transcriptase / profile of mutations: analog instead of normal dNTP. The protocol: Matrix/labeled primer (0.5 pmol), reverse transcriptase (0.04 U/μl) and the 3 dNTPs (500 μM final) were incubated for 30 min at 37° C., and then the dATP (500 μM final) was added and the incubation continued for 30 min at 37° C. The reaction is then stopped by adding EDTA at the concentration of 10 mM final. The reaction products are recovered after alcohol precipitation and digested with the Sac I enzyme. After denaturation at 90° C. for 3 min, the product is loaded onto a denaturing 10% acrylamide gel. After migration and auto-radiography, the 200-base bands are recovered on the gel and then purified. These fragments are amplified by PCR (15 cycles), cleaved with Mlu I and Bam H I and inserted into pBluescript SK+ppt by ligation with T4 DNA ligase, followed by transformation with XL-1 Blue.
The mutated plasmids are easily selected since they no longer have the restriction site recognized by the Nco I enzyme (see FIG. 4.5). In addition, the absence of enzymatic digestion with Sph I implies a double mutation.
The polymerization reaction was carried out in the absence of dATP, as for the reaction in the presence of the “natural” bases, but the dGTP was replaced with dITP or the dTTP was replaced by dUTP. After 30 min at 37° C. in the presence of the HIV-1 reverse transcriptase and of 3 of the 4 bases, the matrix/labeled primer is purified on a Sephadex G50 column, so as to eliminate the nucleotides which have not been incorporated, and in particular the dITP and dUTP which would modify the Sac I restriction site. The elongation is then continued for 30 min at 37° C. in the presence of the 4 natural dNTPs, at the final concentration of 500 μM, and of the enzyme (0.05 U/μl). After alcohol precipitation, digestion with the Sac I restriction enzyme and recovery of the 200-base band, a PCR is carried out under the same conditions as for the reaction in the presence of the “natural” bases. […]

Assay [2] concerns the target T2, Klenow fragment of E.coli DNA-dependent DNA polymerase (Escherichia coli, UniProt P00582).
T2 construct: the Klenow fragment of E.coli DNA-dependent DNA polymerase (KF)
The assay is described as follows: Identification of termination sites of polymerization with base analogs, Klenow fragment. To be noted: pbs primer; for termination rate with the analog compared to the normal dNTP: analog replaces its normal dNTP, each dNTP 500 μM, 30 min 25° C., positions +20 to +55. The source says: These matrices were used for parallel studies of HIV-1 reverse transcriptase and of the Klenow fragment of E.coli DNA-dependent DNA polymerase (KF). There have been many studies relating to the fidelity and processivity of the Klenow fragment (Abbotts and Wilson, 1988; Lecomte and Ninio, 1987, 1988; Papanicolaou and Ripley, 1989 and 1991).
(§1) The termination sites were identified during polymerization catalyzed by the HIV-1 reverse transcriptase and the Klenow fragment by changing one of the dNTPs for its base analog. dTTP was replaced with dUTP, dGTP was replaced with dITP or c7dGTP and dATP was replaced with c7dATP. In this study, the synthesis is primed with pbs.
(§2) The reaction begins by formation of the reaction complex between the matrix/primer labeled at the 5′ end (0.05 pmol) with the enzyme (0.01 U/μl) by incubation at 37° C. for 3 min for the 3 RTs and at 25° C. for the Klenow fragment. A solution containing the 3 dNTPs and one of the analogs, each at the final concentration of 500 μM, and trapping DNA (100:1:trapping DNA:matrix/cold primer) is then added. The use of trapping DNA makes it possible to prevent the reinitialization of the polymerization at the termination sites. In parallel, a control in the presence of the 4 “normal” dNTPs was carried out under reaction conditions identical to the reaction in the presence of analogs. The mixture is incubated for 30 min at 37° C. for the HIV-1 reverse transcriptase and at 25° C. for the Klenow fragment. The reaction is stopped by adding ⅓ volume of stop solution (v/v), and then the reaction products are loaded onto a denaturing 8 M urea 13% acrylamide gel. Position of the termination sites is identified by the co-migration of the sequencing products (Sanger method).
(§3) Each reaction was carried out 3 times; variations in the strength of the termination rates are observed, but they are small and less than 10%. For the HIV-1 reverse transcriptase and the Klenow fragment, the synthesis termination rates with the various analogs (black rods) as a function of the sequence are given in the presence of the termination rates obtained in the control reaction, i.e. in the presence of the “normal” bases (white rods).
Overall, the presence of the base analogs reduces the efficiency of the Klenow fragment polymerization, making it difficult to detect termination sites beyond the position +55, and for this reason, we have represented, in the various figures which follow, only the termination sites located between position +20 and +55.

The target in assay [3] is T1, HIV-1 reverse transcriptase. Description: Identification of termination sites of polymerization with base analogs, HIV-1 reverse transcriptase. As to conditions: pbs primer; for termination rate with the analog compared to the normal dNTP, overall / number of new termination sites appearing: analog replaces its normal dNTP; for termination rate with the analog compared to the normal dNTP, overall: each dNTP 500 μM, 30 min 37° C.
Excerpt: The termination sites and the termination rates at each site were studied in the presence of 4 natural dNTPs present in excess, or in the presence of three of these natural dNTPs, the fourth being replaced with an analog: dUTP as a replacement for dTTP, dITP and c7dGTP as a replacement for dGTP and, finally, c7dATP in place of dATP (FIGS. 1.2 and 1.3). These analogs affect the formation of the hydrogen bonds in the two grooves of the double helix.
as §1, §2, §3

Assay [4] shares this target. The assay is described as follows: Kinetics of misincorporation (error rate) in the minus A reaction with base analogs. To be noted: absence of dATP; for error rate at the first misincorporation site opposite T-135, start of the kinetics: starting value. The source says: In order to understand the role of the three dNTPs present involved in the misincorporation subsequent to the absence of the fourth dNTP, dGTP and/or dCTP were replaced with dITP and dUTP, respectively, in the reaction minus A. dITP was chosen because I can pair with T and therefore compensate for the absence of A, and dUTP was chosen in order to assess the affect that the absence of the methyl of a T may have on the fidelity of incorporation of the neighboring pair. For this reason, we are interested not only in the sites and rates of misincorporations, but in the kinetics with which these misincorporations take place. The conditions most suited to the lack of fidelity of the HIV-RT were selected: use of the matrix+env (ppt primer) and absence of dATP (data not shown).
After hybridization of the ppt primer labeled at the 5′ end (1 pmol), with the matrix+env (2 pmol), the HIV-1 reverse transcriptase is added at the final concentration of 0.1 U/μl. Solutions containing dCTP, dGTP, dTTP (control), dCTP, dITP, dTTP or dCTP, dGTP, dUTP or dCTP, dITP, dUTP, each at the final concentration of 500 μM, were added to equivalent (¼ of the mixture) fractions. […] After denaturation at 92° C. for 5 min, the reaction products are loaded onto an 8M urea denaturing 13% acrylamide gel.
FIG. 4.4 represents the variation in the misincorporation rate in front of T-135 (matrix), the first misincorporation site, as a function of time and of the base analog used.

Where [5] appears, read: matrix +env, ppt primer, dNTPs 500 μM each.
[6] abbreviates: 7 plasmids sequenced, minus A, dITP instead of dGTP.
[7] abbreviates: of 36 plasmids isolated, minus A, Nco I and Sph I digestion test.
[8] abbreviates: sequenced plasmids, absence of dATP and dGTP.

Each structure is given as a SMILES string.

T2 sequence (P00582 324-928): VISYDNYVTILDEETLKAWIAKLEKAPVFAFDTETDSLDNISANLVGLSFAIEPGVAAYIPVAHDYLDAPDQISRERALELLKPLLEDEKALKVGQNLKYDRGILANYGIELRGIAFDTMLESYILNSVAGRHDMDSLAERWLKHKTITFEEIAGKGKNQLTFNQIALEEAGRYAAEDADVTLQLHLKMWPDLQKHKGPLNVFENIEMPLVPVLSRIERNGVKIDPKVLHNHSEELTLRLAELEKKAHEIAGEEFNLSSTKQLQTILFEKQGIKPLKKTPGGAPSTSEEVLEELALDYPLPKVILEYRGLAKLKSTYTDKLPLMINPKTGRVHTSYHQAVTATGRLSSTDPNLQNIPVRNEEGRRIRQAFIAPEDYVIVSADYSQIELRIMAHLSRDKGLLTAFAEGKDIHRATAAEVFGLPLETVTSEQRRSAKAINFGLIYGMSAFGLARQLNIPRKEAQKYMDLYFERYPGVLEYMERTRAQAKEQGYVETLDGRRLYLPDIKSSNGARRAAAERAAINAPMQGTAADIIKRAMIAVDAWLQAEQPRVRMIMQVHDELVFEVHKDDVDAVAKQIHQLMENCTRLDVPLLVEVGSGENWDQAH

In the case of `O=c1ccn([C@H]2C[C@H](O)[C@@H](COP(=O)(O)OP(=O)(O)OP(=O)(O)O)O2)c(=O)[nH]1` [dUTP], the “T:U mismatch” value in assay [1] (6 plasmids sequenced, minus A, dUTP instead of dTTP) is given as “No base U is incorporated”. In addition, the “fidelity of the HIV-1 reverse transcriptase / profile of mutations” value in assay [1] (absence of dATP) is “only slightly modifies the profile and the specificity of the mutations”. In addition, the “plasmids without any mutations on the Sph I and Nco I sites” value in assay [1] (of 36 plasmids, minus A) is given as 15 plasmids. Further, in assay [1] (of 36 plasmids, minus A, Sph I and Nco I digestion), the “plasmids with at least two mutations” value was found to be 21 plasmids. Also, in assay [1] (sequenced plasmids, minus A), the “number of T:C mismatches, all mismatches whatever their position” value came to 6 and the “number of T:G mismatches, all mismatches whatever their position” value was 17. In assay [2], the “termination rate with the analog compared to the normal dNTP” value is given as “significantly increases the termination rate of most of the sites which precede the incorporation of the dUMP”. Further, in assay [3], the “termination rate with the analog compared to the normal dNTP, overall” value is reported as “lower than with dTTP”. In assay [3] (dUTP instead of dTTP, 500 μM), the “decrease of the termination rate of most of the sites located before and after the incorporation of the analog (maximum)” value is ≤ 5%; the “number of sites with a decrease of more than half of their termination rate” value was “Seven”. In assay [4] (setting [5]), the “error rate at the first misincorporation site opposite T-135 after 10 min” value is given as 65% and the “error rate at the first misincorporation site opposite T-135, start of the kinetics” value is listed as 5%. For the same molecule, the “error rate at the first misincorporation site opposite T-135 after 45 min” value in assay [4] (matrix +env, ppt primer, dNTPs 500 μM each, 45 min) is recorded as ~77%.

For `O=c1[nH]cnc2c1ncn2[C@H]1C[C@H](O)[C@@H](COP(=O)(O)OP(=O)(O)OP(=O)(O)O)O1` [dITP], in assay [1] (7 plasmids sequenced, minus A), the “deletion or insertion in the plasmids sequenced” value is reported as “No deletion or insertion is detected”. Besides, in assay [1] (setting [6]), the “times C is incorporated at the 1st site of misincorporation (T-135 matrix)” value came out at 4 times and the “times the I base is incorporated at the 1st site of misincorporation (T-135 matrix)” value turned out to be 3 times. Further, in assay [1] (absence of dATP), the “order of substitution at the T sites of the matrix” value is on record as “C>>I>>T” and the “fidelity of the HIV-1 reverse transcriptase / profile of mutations” value was “increased”. Moreover, the mutation rate result in assay [1] (in vitro, absence of dATP, dITP instead of dGTP) is recorded as “decreases the mutation rate”. For the same molecule, in assay [1] (setting [7]), the “plasmids mutated at least on the first site at which A is requested” value is 4 plasmids, the “plasmids mutated on at least the first three sites” value came to 3 plasmids and the “plasmids mutated on the first two sites” value was “one”. In assay [1] (setting [8]), the “number of T:I pairings” value is “three” and the “number of T:T pairings” value was “one”. Further, the “number of T:C mismatches, all mismatches whatever their position” value in assay [1] (sequenced plasmids, minus A) was “eight”. Besides, in assay [2], the “termination rate with the analog compared to the normal dNTP” value was “increases in the termination rates of the sites located before the incorporation of a dITP”. In addition, in assay [3] (500 μM), the “number of new termination sites appearing” value was “Two”. Also, the “termination rate with the analog compared to the normal dNTP, overall” value in assay [3] is on record as “higher”. Moreover, in assay [3] (dITP instead of dGTP, 500 μM), the “factor of increase in the termination rates of 10 sites” value is listed as ~4 and the “termination strength at the exit of the series of 6As, on average” value is “doubled”. Further, the “decrease of the error rate observed with dGTP at the first misinsertion site” value in assay [4] (dITP instead of dGTP, after 45 min of incubation) is recorded as ~50%. Moreover, in assay [4] (setting [5]), the “error rate at the first misincorporation site opposite T-135 after 10 min” value amounted to 40% and the “error rate at the first misincorporation site opposite T-135, start of the kinetics” value amounted to 0%.

With `Nc1ncnc2c1ccn2[C@H]1C[C@H](O)[C@@H](COP(=O)(O)OP(=O)(O)OP(=O)(O)O)O1` [c7dATP], the “termination rate with the analog compared to the normal dNTP” value in assay [2] was “increase in the termination rates in 3 waves”. Moreover, the “number of new termination sites appearing” value in assay [3] (500 μM) stood at 3 sites. For the same molecule, the “termination rate with the analog compared to the normal dNTP, overall” value in assay [3] was “little effect overall”. Moreover, in assay [3] (c7dATP instead of dATP, 500 μM), the “decrease of the termination rate on A75” value is reported as ~2 fold, the “increase of termination strength opposite A41” value was 7 ×, the “increase of termination strength opposite T76” value is listed as 2 × and the “increase of the termination rate at A41” value is listed as ~7 fold. In assay [3] (c7dATP instead of dATP, 500 μM), the “part of the elongation complexes stopped at new site T63” value is listed as “half” and the “termination rate on A35” value was “remains stable”.

As to `Nc1nc2c(ccn2C2CC(O)C(COP(=O)(O)OP(=O)(O)OP(=O)(O)O)O2)c(=O)[nH]1` (centres unmarked) [c7dGTP], the “termination rate with the analog compared to the normal dNTP” value in assay [2] is recorded as “All the stops on the sites at which the c7dGMP is incorporated into the polymerized strand are increased”. Besides, in assay [2] (c7dGTP instead of dGTP, 500 μM), the “decrease of the termination rate at C32” value is on record as 26%. Further, in assay [3] (500 μM), the “number of new termination sites appearing” value turned out to be 4 sites. In assay [3], the “termination rate with the analog compared to the normal dNTP, overall” value was “considerable increase at the start of elongation, and then a clear tendency toward decreasing the termination rate”. In assay [3] (c7dGTP instead of dGTP, 500 μM), the “decrease of the termination rate at other sites” value is listed as “up to 10 fold”, the “decrease of the termination rate opposite C21” value turned out to be 10%, the “decrease of the termination rate opposite C49” value is reported as 90% and the “increase of the termination rate at 6 of the 18 termination sites” value was “up to 3.5 fold”.

The values are drawn from patent US6727059B1, “METHOD FOR CONTROLLING THE FIDELITY AND PROCESSIVITY OF REVERSE TRANSCRIPTASE BY INCORPORATION AND POLYMERIZATION OF NUCLEOTIDE ANALOGS ACCEPTED AS SUBSTRATES FOR THE REVERSE TRANSCRIPTION REACTION WITHOUT BLOCKING ITS ELONGATION” (priority 2002, dated 2004).
